Results taken from US20240360137A1 (Novartis AG, priority 2023, published 2024).

Assays:
Assay in all cases: CDKi biochemical assay (TR-FRET, phosphorylation of S780 on RB1 peptide)
CDK2/CyclinE1 = CDK2/CyclinE1 (Homo sapiens, UniProt P24941); settings: CDK2/CyclinE1 100 pM, 1 mM ATP, 60 min at 25° C.
Protocol: (§1) Biochemical assays measured the inhibitory effects of compounds in this disclosure on the enzymatic activity of CDK enzyme in complex with Cyclin protein partner by phosphorylation of Ser-780 (S780) on retinoblastoma protein peptide (RB1) in the presence of 1 mM adenosime-5-triphosphate (ATP) and varying concentration of test compound in 20 mM 2-[4-(2-hydroxyethyl)paperazin-1-yl] ethanesulfonic acid (HEPES), pH 7.5, 10 mM MgCl2, 1 mM dithiothreitol (DTT), 0.01% bovine serum albumin (BSA), 0.005% Tween 20. Total Reaction volume of 10 μL proceeded for 60 minutes at room temperature (25° C.) and were quenched with 5 μL of 200 mM 2′,2″,2′″-(Ethane-1,2-diyldinitrilo)tetraacetic acid (EDTA) pH 8.0 before addition of 5 μL detection solution containing 100 nM fluorophore conjugate streptavidin allophycocyanin (SA-APC), 2 nM Europium labelled Anti-p-RB(S780)-K (Perkin Elmer, 64CUSKAY), 50 mM HEPES, pH 7.5, 400 mM potassium fluoride (KF), 0.1% BSA, and 0.01% Tween-20. Phosphorylation of S780 on RB1 peptide (His-MBP-RB1[773-924]-SEQ ID NO. 9) was detected by TR-FRET after 3 hour incubation with detection solution. Percent phosphorylation activity was plotted against log concentration of compound to generate an apparent ICSO. The following CDK enzyme in complex with different cyclin proteins and protein peptide substrate were used in these assays: • CDK1/CyclinB1, Avi-tag, 10 pM used in the assay • CDK2/CyclinE1, Avi-tag, 100 pM used in the assay • CDK4/cyclinD1, Avi-tag, 20 pM used in the assay • CDK6/cyclinD3, Avi-tag, 10 pM used in the assay • His-MBP-RB1[773-924], Avi-tag, 200 nM used in the assay
(§2) The avi-tag is a C-terminal fusion on the CDK1/2/4/6 sequence in each of these two-protein complexes. The known avi-tag sequence, […] (SEQ ID NO. 10), is a substrate for E. coli biotin ligase BirA, which covalently attaches a biotin molecule to the e-amino group of the lysine in that sequence. The avi-tag is attached with an 8 amino-acid linker sequence GGSGGGGS (SEQ ID NO. 11), resulting in the full C-terminal fusion
(§3) Recombinant proteins were generated as N-terminal fusions of 9× His tag—E. coli Maltose Binding Protein (MBP), with or without a C-terminal Avi-tag.^1 CDK2 and His-MBP-RB1[773-924]-c-avi were expressed in E. coli while the remainder were expressed in Sf21 insect cells. Genes were synthesized commercially (GeneArt and Twist Bioscience) using codon frequencies appropriate to the respective organisms and proprietary codon optimization strategies, and inserted into pET 24 (E. coli) or pDEST8 (insect) vectors already containing the 9× His-MBP tag using standard methods of PCR and Gibson Assembly.^2 E. coli expression was performed by auto-induction overnight at 18 or 21 C. For insect cell expression, bacmids and viruses were created,^3 then used to synchronously infect Sf21 insect cells with harvest at 40-48 hrs., per standard protocols.^4
(§4) For CDK2/Cyclin E and CDK1/Cyclin B, the CDK and Cyclin proteins were expressed separately, lysed by sonication and clarified by centrifugation. The fusion proteins were each separately purified by immobilized metal ion affinity chromatography (IMAC) (5 mL HisTrap, Cytiva) and Superdex 200 26/60 (Cytiva) size-exclusion and complexed in vitro (1-3 hrs incubation at room temperature) prior to tag cleavage by recombinant his-tagged Tobacco Etch Virus protease or his-tagged Human rhinovirus 3C protease, as appropriate. The cleaved complex is further purified by Superdex 75 26/60 (Cytiva) size-exclusion followed by reverse-IMAC, in which the complex is in the column flow-through and residual His-MBP and his-tagged proteases are retained. The final complex is concentrated as desired by centrifugal concentration (Amicon Ultra 10,000 Da MWCO 15 mL concentrators, Millipore).
For E. coli expressed CDK2 and His-MBP-RB1[773-924]-c-avi, the proteins were biotinylated in vitro after the first IMAC step.^1
(§5) For the is-MBP-RB1[773-924]-c-avi, the protein was lysed by sonication and clarified by centrifugation. […]

CDK1/CyclinB1 = CDK1/CyclinB1 (Homo sapiens, UniProt P06493); settings: CDK1/CyclinB1 10 pM, 1 mM ATP, 60 min at 25° C.
Protocol: as §1, §2, §3, §4, §5

CDK4/cyclinD1 = CDK4/cyclinD1 (Homo sapiens, UniProt P11802); settings: CDK4/cyclinD1 20 pM, 1 mM ATP, 60 min at 25° C.
Protocol: as §1, §2, §3
(§6) For CDK4/Cyclin D1 and CDK6/Cyclin D3, the complexes were expressed by simultaneous co-infection of insect cells by three separate viruses including one expressing untagged E. coli BirA. The expression media is supplemented with 50 uM d-biotin. The resulting protein complexes purified similarly. After lysis and clarification, the complex is purified by IMAC, Superdex 200 26/60 size exclusion, tag cleavage by human rhinovirus 3C protease, Superdex 75 26/60 size exclusion and reverse IMAC. BirA is typically not retained on the first IMAC, and excess CDK or Cyclin monomer is separated on the Superdex 200 size exclusion. Cleaved His-MBP and remaining monomer are removed by the Superdex 75 size exclusion and the reverse IMAC step. Final concentration by centrifugal concentrators as described above.
as §5

CDK6/cyclinD3 = CDK6/cyclinD3 (Homo sapiens, UniProt Q00534); settings: CDK6/cyclinD3 10 pM, 1 mM ATP, 60 min at 25° C.
Protocol: as §1, §2, §3, §6, §5

| Compound | IC50 (CDK2/CyclinE1) [µM] | IC50 (CDK1/CyclinB1) [µM] | IC50 (CDK4/cyclinD1) [µM] | IC50 (CDK6/cyclinD3) [µM] |
| --- | --- | --- | --- | --- |
| Cn1ccc(COc2n[nH]cc2Nc2ncc3c(n2)N([C@@H]2CCC[C@@H](O)C2)C(=O)C32CC2)n1 [Example 43, 7′-((1R,3R)-3-hydroxycyclohexyl)-2′-((3-((1-methyl-1H-pyrazol-3-yl)methoxy)-1H-pyrazol-4-yl)amino)spiro[cyclopropane-1,5′-pyrrolo[2,3-d]pyrimidin]-6′(7′H)-one] | 0.019 | 1.76 | 3.09 | 8.84 |
| Cc1c(-c2n[nH]cc2Nc2ncc3c(n2)N([C@@H]2CCC[C@@H](O)C2)C(=O)C32CC2)cnn1C [Example 37, 2′-((1′,5′-dimethyl-1H,1′H-[3,4′-bipyrazol]-4-yl)amino)-7′-((1R,3R)-3-hydroxycyclohexyl)spiro[cyclopropane-1,5′-pyrrolo[2,3-d]pyrimidin]-6′(7′H)-one] | 0.031 | ≥ 10 | ≥ 10 | ≥ 10 |
| CO[C@H]1C[C@H](Oc2n[nH]cc2Nc2ncc3c(n2)N([C@@H]2CCC[C@@H](O)C2)C(=O)C32CC2)C1 [Example 82, 7′-((1R,3R)-3-hydroxycyclohexyl)-2′-((3-((1r,3R)-3-methoxycyclobutoxy)-1H-pyrazol-4-yl)amino)spiro[cyclopropane-1,5′-pyrrolo[2,3-d]pyrimidin]-6′(7′H)-one] | 0.026 | 2.53 | ≥ 10 | ≥ 10 |
| COc1n[nH]cc1Nc1ncc2c(n1)N([C@@H]1CCC[C@@H](O)C1)C(=O)C21CC1 [Example 12, 7′-((1R,3R)-3-hydroxycyclohexyl)-2′-((3-methoxy-1H-pyrazol-4-yl)amino)spiro[cyclopropane-1,5′-pyrrolo[2,3-d]pyrimidin]-6′(7′H)-one] | 0.02 | 2.24 | 7.37 | 7.9 |
| O=C1N([C@@H]2CCC[C@@H](O)C2)c2nc(Nc3c[nH]nc3O[C@H]3COC[C@H]3F)ncc2C12CC2 [Example 27, 2′-((3-(((3S,4R)-4-fluorotetrahydrofuran-3-yl)oxy)-1H-pyrazol-4-yl)amino)-7′-((1R,3R)-3-hydroxycyclohexyl)spiro[cyclopropane-1,5′-pyrrolo[2,3-d]pyrimidin]-6′(7′H)-one] | 0.011 | 1.92 | 1.28 | 3.18 |
| O=C1N([C@@H]2CCC[C@@H](O)C2)c2nc(Nc3c[nH]nc3OC3CCC3)ncc2C12CC2 [Example 40, 2′-((3-cyclobutoxy-1H-pyrazol-4-yl)amino)-7′-((1R,3R)-3-hydroxycyclohexyl)spiro[cyclopropane-1,5′-pyrrolo[2,3-d]pyrimidin]-6′(7′H)-one] | 0.026 | 2.89 | ≥ 10 | ≥ 10 |
| O=C1N([C@@H]2CCC[C@@H](O)C2)c2nc(Nc3c[nH]nc3OC3CC(F)(F)C3)ncc2C12CC2 [Example 29, 2′-((3-(3,3-difluorocyclobutoxy)-1H-pyrazol-4-yl)amino)-7′-((1R,3R)-3-hydroxycyclohexyl)spiro[cyclopropane-1,5′-pyrrolo[2,3-d]pyrimidin]-6′(7′H)-one] | 0.026 | 3.84 | 7.4 | ≥ 10 |
| O=C1N([C@@H]2CCC[C@@H](O)C2)c2nc(Nc3c[nH]nc3OCC3(F)COC3)ncc2C12CC2 [Example 48, 2′-((3-((3-fluorooxetan-3-yl)methoxy)-1H-pyrazol-4-yl)amino)-7′-((1R,3R)-3-hydroxycyclohexyl)spiro[cyclopropane-1,5′-pyrrolo[2,3-d]pyrimidin]-6′(7′H)-one] | 0.022 | 3.25 | 1.54 | ≥ 10 |
| O=C1N([C@@H]2CCC[C@@H](O)C2)c2nc(Nc3c[nH]nc3C(F)(F)F)ncc2C12CC2 [Example 15, 7′-((1R,3R)-3-hydroxycyclohexyl)-2′-((3-(trifluoromethyl)-1H-pyrazol-4-yl)amino)spiro[cyclopropane-1,5′-pyrrolo[2,3-d]pyrimidin]-6′(7′H)-one] | 0.039 | 3.72 | ≥ 10 | ≥ 10 |
| Cc1n[nH]cc1Nc1ncc2c(n1)N([C@H]1C[C@H](O)CC(C)(C)C1)C(=O)C21CC1 [Example 7, 7′-((1R,5R)-5-hydroxy-3,3-dimethylcyclohexyl)-2′-((3-methyl-1H-pyrazol-4-yl)amino)spiro[cyclopropane-1,5′-pyrrolo[2,3-d]pyrimidin]-6′(7′H)-one] | 0.136 | 5.99 | 3.86 | 2.21 |
| O=C1N([C@@H]2CCC[C@@H](O)C2)c2nc(Nc3c[nH]nc3OC3CN(CC(F)(F)F)C3)ncc2C12CC2 [Example 46, 7′-((1R,3R)-3-hydroxycyclohexyl)-2′-((3-((1-(2,2,2-trifluoroethyl)azetidin-3-yl)oxy)-1H-pyrazol-4-yl)amino)spiro[cyclopropane-1,5′-pyrrolo[2,3-d]pyrimidin]-6′(7′H)-one] | 0.109 | ≥ 10 | ≥ 10 | ≥ 10 |
| O=C1N([C@@H]2CCC[C@@H](O)C2)c2nc(Nc3c[nH]nc3OCC3COCC3(F)F)ncc2C12CC2 (stereo partly drawn) [Example 76, 2′-((3-((4,4-difluorotetrahydrofuran-3-yl)methoxy)-1H-pyrazol-4-yl)amino)-7′-((1R,3R)-3-hydroxycyclohexyl)spiro[cyclopropane-1,5′-pyrrolo[2,3-d]pyrimidin]-6′(7′H)-one] | 0.032 | 3.29 | 7.27 | ≥ 10 |
| O=C1N([C@@H]2CCC[C@@H](O)C2)c2nc(Nc3c[nH]nc3OC[C@H]3COCCO3)ncc2C12CC2 [Example 66, 2′-((3-(((R)-1,4-dioxan-2-yl)methoxy)-1H-pyrazol-4-yl)amino)-7′-((1R,3R)-3-hydroxycyclohexyl)spiro[cyclopropane-1,5′-pyrrolo[2,3-d]pyrimidin]-6′(7′H)-one] | 0.051 | 4.22 | ≥ 10 | ≥ 10 |
| CC#Cc1n[nH]cc1Nc1ncc2c(n1)N([C@@H]1CCC[C@@H](O)C1)C(=O)C21CC1 [Example 58, 7′-((1R,3R)-3-hydroxycyclohexyl)-2′-((3-(prop-1-yn-1-yl)-1H-pyrazol-4-yl)amino)spiro[cyclopropane-1,5′-pyrrolo[2,3-d]pyrimidin]-6′(7′H)-one] | 0.016 | 3.54 | 9.5 | ≥ 10 |
